According to patent US7973069B2 (PTC Therapeutics, Inc., priority 2004, dated 2011):
“And” between values parts separate entries of the source, which are not always exact repeats. Identical values can stand only once.

tested on: HCV replicon; type: cell-based

SMILES	IC50
CCCNC(=O)Nc1ccc(-c2c(C#N)c3cc(OC)ccc3n2C2CCC2)cc1 [Compound 1162]	0.5 to 2 µM
CCCn1c(-c2ccc(NS(C)(=O)=O)cc2)c(C#N)c2cc(OC)ccc21 [Compound 995]	0.5 to 2 µM
CCn1c(-c2cccc(NC(=O)OCCCl)c2)c(C#N)c2ccc(OCCCN3CCOCC3)cc21 [Compound 1044]	< 0.5 µM
CCOc1ccc2c(c1)c(C#N)c(-c1ccc(NS(=O)(=O)CC)cc1)n2C1CCC1 [Compound 1228]	0.5 to 2 µM
CCOc1ccc2c(C#N)c(-c3ccc(NP(=O)(OC)OC)cc3)n(C3CCC3)c2c1 [Compound 937]	< 0.5 µM
CCOc1ccc2c(C#N)c(-c3ccc(NC(=O)OC(C)c4ccccc4)cc3)n(C3CCC3)c2c1 (stereo not drawn) [Compound 1289]	< 0.5 µM
CCCN(c1ccc(-c2c(C#N)c3ccc(C(F)(F)F)cc3n2CC)cc1)S(=O)(=O)CC [Compound 1007]	< 0.5 µM
CCCOc1ccc2c(C#N)c(-c3ccc(NC(=O)OC4CCCC4)cc3)n(C(C)C)c2c1 [Compound 1205]	< 0.5 µM
CCn1c(-c2ccc(NC(=O)OC)cc2)c(C#N)c2ccc(OC(F)(F)F)cc21 [Compound 886]	0.5 to 2 µM
CCN(CC)CCCOc1ccc2c(C#N)c(-c3ccc(NC(=O)OC(C)C)cc3)n(C3CCC3)c2c1 [Compound 1260]	< 0.5 µM
CCn1c(-c2ccc(NC(=O)N3CCCCC3)cc2)c(C#N)c2ccc(OC)cc21 [Compound 1088]	0.5 to 2 µM
CCOc1ccc2c(C#N)c(-c3ccc(NC(=O)OC(C)COC)cc3)n(C3CCC3)c2c1 (stereo not drawn) [Compound 1313]	< 0.5 µM
CCCOc1ccc2c(C#N)c(-c3ccc(NC(=O)OC4CCOCC4)cc3)n(C(C)C)c2c1 [Compound 1248]	< 0.5 µM
C=CCNC(=O)Nc1ccc(-c2c(C#N)c3ccc(OCCCN4CCOCC4)cc3n2CC)cc1 [Compound 1125]	< 0.5 µM
CCCS(=O)(=O)Nc1ccc(-c2c(C#N)c3ccc(OC(F)F)cc3n2C(C)C)cc1 [Compound 867]	0.5 to 2 µM
CCOc1ccc2c(C#N)c(-c3ccc(NC(=O)OC(C)C(C)(C)C)cc3)n(C3CCC3)c2c1 (stereo not drawn) [Compound 1312]	< 0.5 µM
CCNC(=O)Nc1cccc(-c2c(C#N)c3ccc(OCCCN4CCCC4)cc3n2CC)c1 [Compound 1045]	< 0.5 µM
CCCNC(=O)Nc1ccc(-c2c(C#N)c3cc(OC)ccc3n2CC)cc1 [Compound 1010]	0.5 to 2 µM
CCOc1ccc2c(C#N)c(-c3ccc(NC(=O)OCCOC)cc3)n(C3CCC3)c2c1 [Compound 975]	0.5 to 2 µM

SMILES	IC50
CCCn1c(-c2ccc(NC(=O)NCC)cc2)c(C#N)c2cc(OC)ccc21 [Compound 999]	0.5 to 2 µM
CCCCNC(=O)Nc1ccc(-c2c(C#N)c3ccc(OC)cc3n2CC)cc1F [Compound 910]	0.5 to 2 µM
CCOC(=O)Nc1ccc(-c2c(C#N)c3ccc(OCCCCl)cc3n2CC)cc1 [Compound 1031]	< 0.5 µM
CCn1c(-c2ccc(NS(=O)(=O)C(C)C)cc2)c(C#N)c2ccc(OCCF)cc21 [Compound 912]	0.5 to 2 µM
CCOc1ccc2c(C#N)c(-c3ccc(NC(=O)NC(C)C)cc3)n(C3CCC3)c2c1 [Compound 1080]	< 0.5 µM
CCCOC(=O)Nc1ccc(-c2c(C#N)c3ccc(OCC)cc3n2CC)cc1 [Compound 949]	0.5 to 2 µM
N#Cc1cn(CC2CC2)c2cc(OC(F)F)ccc12 [Compound 940]	0.5 to 2 µM
CC(C)NC(=O)Nc1ccc(-c2c(C#N)c3ccc(OCCn4cncn4)cc3n2C2CCC2)cc1 [Compound 1318]	< 0.5 µM
CCCCOC(=O)Nc1ccc(-c2c(C#N)c3ccc(OC)cc3n2C2CCC2)cc1 [Compound 1075]	0.5 to 2 µM
CCCCNC(=O)Nc1ccc(-c2c(C#N)c3ccc(OCC)cc3n2C(C)C)cc1 [Compound 1101]	< 0.5 µM
CC(C)OC(=O)Nc1ccc(-c2c(C#N)c3ccc(OCCF)cc3n2C2CCC2)cc1 [Compound 1174]	< 0.5 µM
CCCn1c(-c2ccc(NS(=O)(=O)C3CC3)cc2)c(C#N)c2cc(OC)ccc21 [Compound 998]	0.5 to 2 µM
CCCCOC(=O)Nc1ccc(-c2c(C#N)c3cc(OCC)ccc3n2C2CCC2)cc1 [Compound 1197]	0.5 to 2 µM and < 0.5 µM
CCOc1ccc2c(c1)c(C#N)c(-c1ccc(NC(=O)OCC(C)(C)C)cc1)n2C1CCC1 [Compound 1200]	< 0.5 µM
CCCCOC(=O)Nc1ccc(-c2c(C#N)c3ccc(O)cc3n2CC)cc1 [Compound 1086]	< 0.5 µM
CC(C)OC(=O)Nc1ccc(-c2c(C#N)c3ccc(OCc4ccccn4)cc3n2C2CCC2)cc1 [Compound 1220]	< 0.5 µM
CCOc1ccc2c(C#N)c(-c3ccc(NC(=O)NC(C)C)cc3)n(C(C)C)c2c1 [Compound 1100]	< 0.5 µM
CCn1c(-c2ccc(NC(=O)OC)cc2)c(C#N)c2ccc(OCCCN3CCOCC3)cc21 [Compound 1112]	0.5 to 2 µM
CCn1c(-c2ccc(NC(=O)CCc3ccccc3)cc2)c(C#N)c2ccc(OC(F)(F)F)cc21 [Compound 916]	0.5 to 2 µM

SMILES	IC50
CCCNC(=O)Nc1ccc(-c2c(C#N)c3ccc(OC(F)F)cc3n2CC)cc1 [Compound 1136]	0.5 to 2 µM
CCn1c(-c2ccc(NS(C)(=O)=O)c(C)c2)c(C#N)c2ccc(OC)cc21 [Compound 959]	0.5 to 2 µM
CCOc1ccc2c(C#N)c(-c3ccc(NC(=O)OC(C)C)cc3)n(C3CCC3)c2c1 [Compound 973]	< 0.5 µM
CC(C)n1c(-c2ccc(NS(=O)(=O)C3CC3)cc2)c(C#N)c2ccc(OC(F)F)cc21 [Compound 868]	< 0.5 µM
COc1ccc2c(C#N)c(-c3ccc(NC(=O)OC(C)C)cc3)n(C3CCC3)c2c1 [Compound 1076]	< 0.5 µM
CCn1c(-c2ccc(NC(=O)NC(C)C)c(F)c2)c(C#N)c2ccc(OC)cc21 [Compound 911]	0.5 to 2 µM
CCNC(=O)Nc1cccc(-c2c(C#N)c3ccc(OCCCN4CCOCC4)cc3n2CC)c1 [Compound 1043]	0.5 to 2 µM
CCCOc1ccc2c(C#N)c(-c3ccc(NC(=O)OCC)cc3)n(C(C)C)c2c1 [Compound 1202]	< 0.5 µM
CCn1c(-c2ccc(NC(=O)OCCF)cc2)c(C#N)c2ccc(OCCF)cc21 [Compound 945]	0.5 to 2 µM
CC(C)OC(=O)Nc1ccc(-c2c(C#N)c3ccc(Oc4ncccn4)cc3n2C(C)C)cc1 [Compound 2392]	< 0.5 µM
CCn1c(-c2cccc(NS(=O)(=O)CC)c2)c(C#N)c2ccc(OCCCN3CCOCC3)cc21 [Compound 1035]	0.5 to 2 µM
CCn1c(-c2ccc(NS(=O)(=O)C3CC3)cc2)c(C#N)c2ccc(OC(F)(F)F)cc21 [Compound 883]	< 0.5 µM
CCn1c(-c2ccc(NC(=O)C3CC3)cc2)c(C#N)c2ccc(OCCN3CCOCC3)cc21 [Compound 1025]	0.5 to 2 µM
CCOC(=O)Nc1ccc(-c2c(C#N)c3ccc(OC)cc3n2CC)cc1C [Compound 964]	0.5 to 2 µM
CCn1c(-c2ccc(NC(=O)C3CC3)cc2)c(C#N)c2ccc(OCCN3CCN(C)CC3)cc21 [Compound 952]	0.5 to 2 µM
CCCn1c(-c2ccc(N3CCCS3(=O)=O)cc2)c(C#N)c2ccc(OC(F)(F)F)cc21 [Compound 904]	0.5 to 2 µM
CCn1c(-c2cccc(NC(=O)NCCCl)c2)c(C#N)c2ccc(OCCCN3CCOCC3)cc21 [Compound 1036]	0.5 to 2 µM
CC(C)OC(=O)Nc1ccc(-c2c(C#N)c3ccc(OCCn4ccnc4)cc3n2C2CCC2)cc1 [Compound 1275]	< 0.5 µM
C=CCOC(=O)Nc1ccc(-c2c(C#N)c3ccc(OCC)cc3n2C2CCC2)cc1 [Compound 981]	< 0.5 µM
